In article PMC10541198, “Specific quinone reductase 2 inhibitors reduce metabolic burden and reverse Alzheimer’s disease phenotype in mice” (The Journal of Clinical Investigation, 2023):
Several values for one entry are separate records, joined by “and”; a condition that tells them apart may be missing. Equal entries are not always repeated.

Test system: CD73
Test: Immunoblot of CD73 in HCT116 cells after 4-day treatment
Assay type: cell-based, human
Settings: 2 μM, 4 days
Method: To establish direct target engagement and cell membrane permeability, a cellular thermal shift assay (CETSA) was carried out, using leading QR2is YB’s-537, 800, and 808. Following a 1 hour preincubation with 5 μM of the QR2is or vehicle, thermal aggregation curves (Taggs) of QR2 expressed in HEK293T were measured in increasing temperatures. All QR2is increased QR2 thermal stability compared with vehicle (Supplemental Figure 2A). Based on the Tagg curves we selected 73°C for isothermal dose-response fingerprint (IDTRF) experiments (Supplemental Figure 2B). The ITDRF allowed the relative quantification of the binding of each of the QR2is to QR2, measured as the EC50 (Figure 3A). […] We evaluated the safety of the QR2is using cell toxicity and viability assays. […] Cell viability was assessed by XTT assay in HEK239T cells, using a dose response, with 3- or 24-hour incubations of the leading QR2is. […] We then assessed WT HCT116 cells by immunoblot (Supplemental Figure 2, C and D), after being treated with YB-800 (2 μM) for 4 consecutive days. […]
The cells wer e har ves t ed a nd resuspended in 1% cl ear m e di um ( DM EM – with no phenol red, suppl em ent ed with 1% FBS, 1% L-Glutamine and 1% Penicillin-Streptomycin). […] The plate wa s then incubated in the dark at 37°C f or 3 h, before reading in a Tecan M200 Pro florescence microplate reader, using wavelengths Ex/Em = 485 nm / 535 nm . […]

In the case of Cc1ccc(-c2cn3cccc(C)c3n2)cc1S(=O)(=O)N1CCC(C)CC1 [YB-800], the “CD73 expression (replicates)” value is reported as 1.393 and 1.4862 and 1.532 and 1.811 and 1.4595 and 1.188.
